Assay results as given in BindingDB's records for patent US11168088 (2021).

What follows are compounds tested against Cyclin-dependent kinase 2 (Homo sapiens, UniProt P24941).

IC50 [nM]	Structure (SMILES)
23	Cc1c2c(nn1C)CCc1cnc(Nc3ccc(CN4CCN(C)CC4)cn3)nc1-2 [US11168088, Compound D1]
896	CCN1CCN(Cc2ccc(Nc3ncc4c(n3)-c3c(nn(CC)c3C(C)C)CC4)nc2)CC1 [US11168088, Compound P-2]
3000	CCc1nc2c(n1C(C)C)-c1nc(Nc3ccc(CN4CCN(CC)CC4)cn3)ncc1C2 [US11168088, Compound P-5]
7980	CCN1CCN(c2ccc(Nc3ncc4c(n3)-c3c(cnn3C(C)C)CC4)nc2)CC1 [US11168088, Compound P-12]
8520	CC(C)n1ncc2c1-c1nc(Nc3ccc(N4CCNCC4)cn3)ncc1CC2 [US11168088, Compound P-25]

Each compound was assayed against Cyclin-dependent kinase 6/G1/S-specific cyclin-D1 (Homo sapiens, UniProt Q00534).
Cyclin-dependent kinase 6/G1/S-specific cyclin-D1, sequence (P24385 whole entry): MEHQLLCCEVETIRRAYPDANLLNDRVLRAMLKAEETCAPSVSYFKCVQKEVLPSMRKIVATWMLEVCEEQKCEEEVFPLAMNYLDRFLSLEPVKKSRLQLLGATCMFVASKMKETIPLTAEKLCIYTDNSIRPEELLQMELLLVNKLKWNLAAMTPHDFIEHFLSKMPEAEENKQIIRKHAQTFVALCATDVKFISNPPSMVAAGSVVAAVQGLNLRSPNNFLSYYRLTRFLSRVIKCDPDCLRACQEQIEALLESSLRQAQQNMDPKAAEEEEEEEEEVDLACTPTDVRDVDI
Cyclin-dependent kinase 6/G1/S-specific cyclin-D1, sequence (Q00534 whole entry): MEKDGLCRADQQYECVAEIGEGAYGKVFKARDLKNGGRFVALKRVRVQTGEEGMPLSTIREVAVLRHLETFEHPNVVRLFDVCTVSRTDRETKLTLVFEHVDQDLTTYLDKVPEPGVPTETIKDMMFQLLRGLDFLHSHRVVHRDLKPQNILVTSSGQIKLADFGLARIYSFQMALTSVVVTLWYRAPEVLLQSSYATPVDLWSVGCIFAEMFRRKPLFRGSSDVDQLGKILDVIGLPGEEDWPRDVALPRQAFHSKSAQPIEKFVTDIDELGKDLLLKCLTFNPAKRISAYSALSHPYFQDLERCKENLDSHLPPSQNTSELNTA

IC50 [nM]	Structure (SMILES)
53	CC(C)c1nn(C)c2c1-c1nc(Nc3ccc(N4CCNCC4)cn3)ncc1C2 [US11168088, Compound P-16]
